Assay results: US9505726B2, “Substituted biphenyl amides as P2X3 and P2X2/3 antagonists” (Roche Palo Alto LLC, priority 2009, dated 2016)

Target: T1, rat P2X3 receptor (Rattus norvegicus, UniProt P49654)
T1 construct: expressed in transfected cells; host or cells: CHO-K1
T1 sequence (P49654 1-397): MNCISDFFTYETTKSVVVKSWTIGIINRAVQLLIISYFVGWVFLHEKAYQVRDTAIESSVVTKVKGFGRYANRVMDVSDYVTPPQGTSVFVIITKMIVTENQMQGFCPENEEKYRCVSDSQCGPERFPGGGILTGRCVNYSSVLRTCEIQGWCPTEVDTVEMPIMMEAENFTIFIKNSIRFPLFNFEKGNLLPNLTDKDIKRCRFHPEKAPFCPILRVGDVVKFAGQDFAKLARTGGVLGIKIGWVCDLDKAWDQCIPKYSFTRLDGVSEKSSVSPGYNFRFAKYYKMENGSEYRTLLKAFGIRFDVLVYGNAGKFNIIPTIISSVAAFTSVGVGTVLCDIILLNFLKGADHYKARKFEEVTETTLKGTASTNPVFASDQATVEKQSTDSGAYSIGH
Experiment: P2X3 FLIPR (Fluorometric Imaging Plate Reader) assay
Format: cell-based
Details: CHO-K1 cells transfected with cloned rat P2X3; agonist α,β-meATP 1 μM; Fluo-3 AM calcium fluorescence
Procedure: CHO-K1 cells were transfected with cloned rat P2X3 or human P2X2/3 receptor subunits and passaged in flasks. 18-24 hours before the FLIPR experiment, cells were released from their flasks, centrifuged, and resuspended in nutrient medium at 2.5×10^5 cells/ml. The cells were aliquoted into black-walled 96-well plates at a density of 50,000 cells/well and incubated overnight in 5% CO2 at 37° C. On the day of the experiment, cells were washed in FLIPR buffer (calcium- and magnesium-free Hank's balanced salt solution, 10 mM HEPES, 2 mM CaCl2, 2.5 mM probenecid; FB). Each well received 100 μl FB and 100 μl of the fluorescent dye Fluo-3 AM [2 μM final conc.]. After a 1 hour dye loading incubation at 37° C., the cells were washed 4 times with FB, and a final 75 μl/well FB was left in each well.
Test compounds (dissolved in DMSO at 10 mM and serially diluted with FB) or vehicle were added to each well (25 μl of a 4× solution) and allowed to equilibrate for 20 minutes at room temperature. The plates were then placed in the FLIPR and a baseline fluorescence measurement (excitation at 488 nm and emission at 510-570 nm) was obtained for 10 seconds before a 100 μl/well agonist or vehicle addition. The agonist was a 2X solution of α,β-meATP producing a final concentration of 1 μM (P2X3) or 5 μM (P2X2/3). Fluorescence was measured for an additional 2 minutes at 1 second intervals after agonist addition. A final addition of ionomycin (5 μM, final concentration) was made to each well of the FLIPR test plate to establish cell viability and maximum fluorescence of dye-bound cytosolic calcium. Peak fluorescence in response to the addition of α,β-meATP (in the absence and presence of test compounds) was measured and inhibition curves generated using nonlinear regression. PPADS, a standard P2X antagonist, was used as a positive control.

For CC(NC(=O)c1cc(-c2ccc(Cl)cc2)cc(N(C)C(=O)N(C)C)c1)c1cnccn1 (centres unmarked) [Compound 57, 4′-Chloro-5-(trimethyl-ureido)-biphenyl-3-carboxylic acid (1-pyrazin-2-yl-ethyl)-amide], the “P2X3 (pIC50 values for the P2X3 receptor)” value was 6.26.

Cc1ccc(-c2cc(C(=O)NC(C)c3cnccn3)cc(N(C)C(=O)C(C)C)c2)c(F)c1 (centres unmarked) [Compound 58, 2′-Fluoro-5-(isobutyryl-methyl-amino)-4′-methyl-biphenyl-3-carboxylic acid (1-pyrazin-2-yl-ethyl)-amide] was tested, and the “P2X3 (pIC50 values for the P2X3 receptor)” value was 8.25.

With Cc1ccc(-c2cc(C(=O)N[C@@H](C)CO)cc(N(C)C(=O)C(C)C)c2)c(F)c1 [Compound 59, 2′-Fluoro-5-(isobutyryl-methyl-amino)-4′-methyl-biphenyl-3-carboxylic acid ((S)-2-hydroxy-1-methyl-ethyl)-amide] the “P2X3 (pIC50 values for the P2X3 receptor)” value was 8.16.

For Cc1ccc(-c2cc(C(=O)NCc3cnccn3)cc(N(C)C(=O)C(C)C)c2)c(F)c1 [Compound 60, 2′-Fluoro-5-(isobutyryl-methyl-amino)-4′-methyl-biphenyl-3-carboxylic acid (pyrazin-2-ylmethyl)-amide], the “P2X3 (pIC50 values for the P2X3 receptor)” value was 7.8.

For CC(=O)N1CCC(C(=O)N(C)c2cc(C(=O)NC(C)c3cnccn3)cc(-c3ccc(C)cc3)c2)CC1 (centres unmarked) [Compound 61, 1-Acetyl-piperidine-4-carboxylic acid methyl-[4′-mcthyl-5-(1-pyrazin-2-yl-ethylcarbamoyl)-biphenyl-3-yl]-amide], the “P2X3 (pIC50 values for the P2X3 receptor)” value was 5.7.

With Cc1ccc(-c2cc(C(=O)NCc3cnccn3)cc(N(C)C(=O)C(C)C)c2)cc1 [Compound 62, 5-(Isobutyryl-methyl-amino)-4′-methyl-biphenyl-3-carboxylic acid (pyrazin-2-ylmethyl)-amide] the “P2X3 (pIC50 values for the P2X3 receptor)” value was 8.14.

With COC[C@@H](C)NC(=O)c1cc(-c2ccc(Cl)cc2Cl)cc(N(C)C(=O)C(C)C)c1 [Compound 63, 2′,4′-Dichloro-5-(isobutyryl-methyl-amino)-biphenyl-3-carboxylic acid ((R)-2-methoxy-1-methyl-ethyl)-amide] the “P2X3 (pIC50 values for the P2X3 receptor)” value was 5.94.

With CC(C)C(=O)N(C)c1cc(C(=O)NC(C)c2cnccn2)cc(-c2ccc(Cl)cc2Cl)c1 (centres unmarked) [Compound 64, 2′,4′-Dichloro-5-(isobutyryl-methyl-amino)-biphenyl-3-carboxylic acid (1-pyrazin-2-yl-ethyl)-amide] the “P2X3 (pIC50 values for the P2X3 receptor)” value was 7.5.

In the case of COC[C@@H](C)NC(=O)c1cc(-c2ccc(F)cc2F)cc(N(C)C(=O)C(C)C)c1 [Compound 65, 2′,4′-Difluoro-5-(isobutyryl-methyl-amino)-biphenyl-3-carboxylic acid ((R)-2-methoxy-1-methyl-ethyl)-amide], the “P2X3 (pIC50 values for the P2X3 receptor)” value is reported as 5.38.

CC(C)C(=O)N(C)c1cc(C(=O)NC(C)c2cnccn2)cc(-c2ccc(F)cc2F)c1 (centres unmarked) [Compound 66, 2′,4′-Difluoro-5-(isobutyryl-methyl-amino)-biphenyl-3-carboxylic acid (1-pyrazin-2-yl-ethyl)-amide] was tested, and the “P2X3 (pIC50 values for the P2X3 receptor)” value was 6.63.

In the case of CC(C)C(=O)N(C)c1cc(C(=O)NC(C)c2cnccn2)cc(-c2ccc(Cl)cn2)c1 (centres unmarked) [Compound 67, 3-(5-Chloro-pyridin-2-yl)-5-(isobutyryl-methyl-amino)-N-(1-pyrazin-2-yl-ethyl)-benzamide], the “P2X3 (pIC50 values for the P2X3 receptor)” value is reported as 7.75.

CC(C)C(=O)N(C)c1cc(C(=O)N[C@@H](C)CO)cc(-c2ccc(Cl)cn2)c1 [Compound 69, 3-(5-Chloro-pyridin-2-yl)-N-((S)-2-hydroxy-1-methyl-ethyl)-5-(isobutyryl-methyl-amino)-benzamide] was tested, and the “P2X3 (pIC50 values for the P2X3 receptor)” value was 6.86.

Cc1ccc(-c2cc(C(=O)NC(C)c3cnccn3)cc(N(C)C(=O)C(C)C)c2)nc1 (centres unmarked) [Compound 70, 3-(Isobutyryl-methyl-amino)-5-(5-methyl-pyridin-2-yl)-N-(1-pyrazin-2-yl-ethyl)-benzamide] was tested, and the “P2X3 (pIC50 values for the P2X3 receptor)” value was 8.11.

In the case of Cc1ccc(-c2cc(C(=O)N[C@@H](C)CO)cc(N(C)C(=O)C(C)C)c2)nc1 [Compound 72, N-((S)-2-Hydroxy-1-methyl-ethyl)-3-(isobutyryl-methyl-amino)-5-(5-methyl-pyridin-2-yl)-benzamide], the “P2X3 (pIC50 values for the P2X3 receptor)” value is reported as 7.58.
